Measurements published in publication PMC4621027, “Hydroxyethylamine Based Phthalimides as New Class of Plasmepsin Hits: Design, Synthesis and Antimalarial Evaluation” (PLoS ONE, 2015).
Read-outs that look alike come from different tables or passages of the source.

How the values were obtained:
P. falciparum 3D7 = assay: SYBR green I-based fluorescence parasite growth assay, CQ sensitive strain; type: cell-based, Plasmodium falciparum; details: read-out: IC50 values ± SE, growth of P. falciparum (3D7)
Method: (§1) For compound screening, SYBR green I-based fluorescence assay was setup as described in literature. Sorbitol synchronized parasites were incubated under normal culture conditions at 2% hematocrit and 1% parasitemia in the absence or presence of increasing concentrations of the compounds. Chloroquine (CQ) was used as positive control, while 0.4% DMSO was used as the negative control.
(§2) We have studied the antimalarial effect of all the listed molecules in […] culture conditions in order to identify a putative lead structure for pharmacological applications.

[1] = system: CQ resistant strain (7GB) of P. falciparum; assay: Antiplasmodial activity against CQ resistant strain; type: cell-based; details: Plasmodium falciparum, 48 h, read-out: IC50 values ± SE, CQ resistant strain (7GB)
Method: as §1, §2

[2] = MTT-colorimetric cytotoxicity assay; type: cell-based; details: human, MCF-7 cells, read-out: IC50, cytotoxicity on MCF7 cell line
Method: (§3) Phthalimides were serially diluted in DMSO in a final concentration of 100, 25 and 6.25 μg mL^-1 and evaluated for their % cytotoxicity by using MTT-colorimetric assay on MCF-7 cell line. Cell lines were maintained in RPMI-1640 (Hi-Media, Mumbai) medium supplemented with heat inactivated FCS (10% v/v) and 100 U/mL of streptomycin and were cultured in a humidified 5% CO2 atmosphere at 37°C. 100 μL (~2×10^5) of cells were seeded into wells (per well) on a 96-well plate (Nunc, Maxi Sorp) and incubated for 16 h for adherence. After 16 h, media was aspirated from the wells and the cells were washed with RPMI-1640 without FCS. 75 μL of each compound and control was added to separate wells containing cell lines and incubated at 37°C in humidified 5% CO2 atmosphere for 4 h. After 4 h, media containing the compounds was replaced with 200 μL of normal RPMI-1640 and cells were further incubated for 48 h under same conditions. After 48 h media was replaced by 200 μL of MTT (3-(4, 5-dimethylthiazol-2-yl)-2, 5-diphenyltetrazolium bromide, 0.5 mg/mL of RPMI-1640) and further incubated for 2 h. The formazan crystals were formed and suspended in 100 μL iso-propanol containing 0.06 M HCl and 0.5% SDS. Aliquots were drawn from each well and colour intensity was measured spectrophotometrically in an ELISA plate reader (Biotek, ELx800) at 540 nm. Untreated cells were taken as control with 100% viability and cells without addition of MTT were used as blank. The relative cell viability (%) compared to control cells was calculated by [abs] sample/ [abs] control × 100.

plasmepsin 4 = molecular target: T1, plasmepsin 4 (Plasmodium falciparum, UniProt Q8IM16); assay: Inhibition of plasmepsin 4, chromogenic substrate cleavage assay; type: biochemical; details: pH 4.5; fit to competitive inhibition scheme
T1 construct: preincubated at the assay pH for 3 minutes to allow conversion from the proenzyme to the mature enzyme form; made in house
T1 sequence (Q8IM16 122-449): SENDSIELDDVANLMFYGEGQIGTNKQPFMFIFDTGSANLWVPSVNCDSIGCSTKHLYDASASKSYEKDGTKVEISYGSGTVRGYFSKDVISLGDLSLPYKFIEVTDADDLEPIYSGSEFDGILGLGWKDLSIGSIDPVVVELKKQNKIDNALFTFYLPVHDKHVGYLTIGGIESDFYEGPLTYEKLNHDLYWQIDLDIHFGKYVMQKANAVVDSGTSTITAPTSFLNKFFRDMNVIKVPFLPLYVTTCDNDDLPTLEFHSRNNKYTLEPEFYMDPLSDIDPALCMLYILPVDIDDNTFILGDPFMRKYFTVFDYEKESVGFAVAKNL
Method: (§4) Synthetic compounds were dissolved in DMSO to make stock solutions at concentrations around 100 μM. Dilutions from these stocks were made to obtain solutions to use for studying inhibition of the plasmepsins 2 and 4 from P. falciparum. Assays of enzymatic activity were typically done using 50 micromolar substrate and 50 nanomolar enzyme at pH 4.5. The protein samples were preincubated at the assay pH for 3 minutes to allow conversion from the proenzyme to the mature enzyme form, then immediately mixed with inhibitor solutions and incubated for a further 5 minutes to permit the enzyme-inhibitor complex to form. Following this, the samples were mixed with samples of the substrate to yield a 50 μM substrate concentration in the final assay solution and immediately placed in a recording spectrophotometer to follow the reaction. The cleavage of the chromogenic substrate yields a shift in absorbance that can be quantified by the decrease in absorbance at 300 nm. Compounds were mixed with the enzymes at concentrations ranging from 10 to 50 μM range and the effect on enzyme activity studied in duplicate assays.
(§5) A second inhibitor concentration was chosen that would yield approximately 30–35% inhibition and a third inhibitor concentration was chosen to yield approximately 65–70% inhibition. The three resulting curves of initial velocity versus substrate concentration were fit simultaneously to the competitive inhibition scheme; this yields values of Vmax, Km, and Ki.
(§6) Plasmepsins, a family of aspartic proteases of malaria parasite, are known to participate in a wide variety of cellular processes essential for parasite survival. […] Similarly, plasmepsin 4 from P. falciparum can be prepared and activated. Catalytic activity of the plasmepsins can be studied by following the change in absorbance at 300 nm as cleavage occur between a Phe and a nitroPhe in the synthetic substrate, Lys-Pro-Ile-Glu-Phe-NO2Phe-Arg-Leu. The compounds listed in Tables 1, 2 and 3 were assayed for inhibition by preincubating with differnt concentrations of the compound with equal aliquots of either plasmepsin 2 or 4 followed by mixing with the assay substrate.

plasmepsin 2 = molecular target: T2, plasmepsin 2 (Plasmodium falciparum, UniProt P46925); assay: Inhibition of plasmepsin 2, chromogenic substrate cleavage assay; type: biochemical; details: pH 4.5; fit to competitive inhibition scheme
T2 construct: preincubated at the assay pH for 3 minutes to allow conversion from the proenzyme to the mature enzyme form; made in house
T2 sequence (P46925 125-453): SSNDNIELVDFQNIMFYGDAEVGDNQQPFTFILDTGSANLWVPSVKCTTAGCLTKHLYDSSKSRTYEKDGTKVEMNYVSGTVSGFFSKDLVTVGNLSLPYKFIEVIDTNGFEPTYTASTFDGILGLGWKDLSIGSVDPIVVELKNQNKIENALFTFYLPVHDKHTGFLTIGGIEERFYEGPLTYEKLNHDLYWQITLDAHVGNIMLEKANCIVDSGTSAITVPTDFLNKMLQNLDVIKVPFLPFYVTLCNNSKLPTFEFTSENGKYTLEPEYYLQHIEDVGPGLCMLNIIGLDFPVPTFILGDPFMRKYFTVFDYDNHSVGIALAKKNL
Method: as §4, §5, §6

human erythrocytes = assay: In vitro hemolytic activity; type: cell-based; details: 3.125 to 100 μg/mL, 37°C, 1 h
Method: In vitro hemolytic activity of all synthesized compounds was performed as per reported protocol with slight modifications. In brief, human erythrocytes were collected from Rotary Blood Bank (New Delhi, India) and suspended in phosphate buffer saline (PBS). The suspension (2% hemotocrit) was incubated with different concentrations (3.125 to 100 μg/mL) of the entire compound series at 37°C for 1 h. After 1 h, erythrocytes were pelleted at 3000 g for 10 min (Remi, R-8C/BL) at 4°C. The supernatant was collected and OD450 was determined spectrophotometrically (Biotek, ELx800 UV spectrophotometer) using PBS as a negative control and Triton X-100 for completely lysing the cells. The percent hemolysis was calculated using the following formula: Percent hemolysis = […]. The percent hemolysis was plotted against concentration of compounds for determining the dose cytotoxic to erythrocytes.

MCF-7 cell line = assay: MTT-colorimetric cytotoxicity assay; type: cell-based; details: 100, 25 and 6.25 μg mL^-1
Method: as §3

[3] = Plasmodium falciparum, CQ sensitive strain 3D7, 48 h incubation

SMILES	melting point [°C]	IC50 (P. falciparum 3D7; [3]) [µM]	also measured
CC(C)C[C@@H](C(=O)N[C@H](Cc1ccccc1)[C@@H](O)CN1CCN(Cc2ccc(F)cc2)CC1)N1C(=O)c2ccccc2C1=O [Compound 6i]	134 to 136	5.27 ± 0.06	
CCN(CC)CCCC(C)Nc1ccnc2cc(Cl)ccc12 (stereo not drawn) [CQ, Chloroquine, reference compound]			IC50 [1]: 1.32 µM; IC50 (P. falciparum 3D7; Plasmodium falciparum, 3D7, 48 h): 0.059 µM
CC(C)(C)OC(=O)N[C@H](Cc1ccccc1)[C@@H](O)CN1CCN(Cc2ccc(F)cc2)CC1 [Compound 5c]	108 to 110	2.56 ± 0.06	IC50 at 4 h [2]: > 8 µM
CC(C)C[C@@H](C(=O)N[C@H](Cc1ccccc1)[C@@H](O)CN1CCN(Cc2ccc(Br)cc2)CC1)N1C(=O)c2ccccc2C1=O [Compound 6m]	143 to 145	6.96 ± 0.1	IC50 at 4 h [2]: > 8 µM
CC(C)[C@@H](C(=O)N[C@H](Cc1ccccc1)[C@@H](O)CN1CCN(C[C@H](O)[C@@H](Cc2ccccc2)NC(=O)[C@H](C(C)C)N2C(=O)c3ccccc3C2=O)CC1)N1C(=O)c2ccccc2C1=O [Compound 6t]	123 to 125	7.28 ± 0.43	Ki (plasmepsin 4): 3.3 ± 0.3 µM; Ki (plasmepsin 2): > 20 µM
CC(C)[C@@H](C(=O)N[C@H](Cc1ccccc1)[C@@H](O)CN1CCN(C)CC1)N1C(=O)c2ccccc2C1=O [Compound 6c]	91 to 93	4.58 ± 0.04	
CCC(C)[C@@H](C(=O)N[C@H](Cc1ccccc1)[C@@H](O)CN1CCN(C[C@H](O)[C@@H](Cc2ccccc2)NC(=O)[C@H](C(C)CC)N2C(=O)c3ccccc3C2=O)CC1)N1C(=O)c2ccccc2C1=O (stereo partly drawn) [Compound 6u]	131 to 134	3.24 ± 0.06	Ki (plasmepsin 4): > 50 µM; Ki (plasmepsin 2): 0.99 ± 0.1 µM
CC(C)C[C@@H](C(=O)N[C@H](Cc1ccccc1)[C@@H](O)CN1CCN(C[C@H](O)[C@@H](Cc2ccccc2)NC(=O)[C@H](CC(C)C)N2C(=O)c3ccccc3C2=O)CC1)N1C(=O)c2ccccc2C1=O [Compound 6r]	141 to 143	5.12 ± 0.43	Ki (plasmepsin 4): > 50 µM; Ki (plasmepsin 2): 1.1 ± 0.1 µM; hemolysis of human erythrocytes (in words) (human erythrocytes): least hemotoxic
CCN1CCN(C[C@H](O)[C@@H](Cc2ccccc2)NC(=O)[C@H](CC(C)C)N2C(=O)c3ccccc3C2=O)CC1 [Compound 6e]	117 to 119	2.13 ± 0.02	
C[C@@H]1CC[C@H]2[C@@H](C)C(=O)O[C@@H]3O[C@@]4(C)CC[C@@H]1[C@]32OO4 [ART, reference compound]			IC50 (P. falciparum 3D7; CQ sensitive strain 3D7, 48 h incubation): 0.021 µM
O=C(N[C@H](Cc1ccccc1)[C@@H](O)CN1CCC(N2CCCCC2)CC1)[C@H](Cc1ccccc1)N1C(=O)c2ccccc2C1=O [Compound 6q]	134 to 136	8.54 ± 0.04	IC50 at 4 h [2]: > 8 µM
O=C(N[C@H](Cc1ccccc1)[C@@H](O)CN1CCN(Cc2ccc(Br)cc2)CC1)[C@H](Cc1ccccc1)N1C(=O)c2ccccc2C1=O [Compound 6n]	131 to 133	3.14 ± 0.02	
CCN1CCN(C[C@H](O)[C@@H](Cc2ccccc2)NC(=O)[C@H](Cc2ccccc2)N2C(=O)c3ccccc3C2=O)CC1 [Compound 6f]	108 to 111	2.96 ± 0.43	
CCN1CCN(C[C@H](O)[C@@H](Cc2ccccc2)NC(=O)OC(C)(C)C)CC1 [Compound 5b]	89 to 91	5.4 ± 0.06	hemolysis of human erythrocytes (in words) (human erythrocytes): highest hemotoxicity
CN1CCN(C[C@H](O)[C@@H](Cc2ccccc2)NC(=O)[C@H](Cc2ccccc2)N2C(=O)c3ccccc3C2=O)CC1 [Compound 6b]	101 to 103	3.41 ± 0.03	
CC(C)C[C@@H](C(=O)N[C@H](Cc1ccccc1)[C@@H](O)CN1CCN(C)CC1)N1C(=O)c2ccccc2C1=O [Compound 6a]	141 to 143	4.61 ± 0.06	
CCN1CCN(C[C@H](O)[C@@H](Cc2ccccc2)NC(=O)[C@H](C(C)C)N2C(=O)c3ccccc3C2=O)CC1 [Compound 6g]	108 to 111	3.8 ± 0.03	
CC(C)(C)OC(=O)N[C@H](Cc1ccccc1)[C@@H](O)CN1CCN(Cc2ccc(Br)cc2)CC1 [Compound 5d]	111 to 114	4.9 ± 0.01	
CC[C@@H](C)[C@@H](C(=O)N[C@H](Cc1ccccc1)[C@@H](O)CN1CCN(C)CC1)N1C(=O)c2ccccc2C1=O [Compound 6d]	104 to 106	6.33 ± 0.13	hemolysis of human erythrocytes (in words) (human erythrocytes): lower hemolysis
CC(C)(C)OC(=O)N[C@H](Cc1ccccc1)[C@@H](O)CN1CCN(C[C@H](O)[C@@H](Cc2ccccc2)NC(=O)OC(C)(C)C)CC1 [Compound 5f]		3.11 ± 0.11	cytotoxic effect on MCF7 cell line (in words) (MCF-7 cell line): maximal toxicity
CN1CCN(C[C@H](O)[C@@H](Cc2ccccc2)NC(=O)OC(C)(C)C)CC1 [Compound 5a]		5.88 ± 0.23	IC50 at 4 h [2]: > 8 µM; hemolysis of human erythrocytes (in words) (human erythrocytes): least hemotoxic
CC(C)[C@@H](C(=O)N[C@H](Cc1ccccc1)[C@@H](O)CN1CCN(Cc2ccc(F)cc2)CC1)N1C(=O)c2ccccc2C1=O [Compound 6k]	137 to 139	4.59 ± 0.07	IC50 at 4 h [2]: > 8 µM
